Data as given in publication PMC11808726, “Identification of ABHD6 as a lysophosphatidylserine lipase in the mammalian liver and kidneys” (The Journal of Biological Chemistry, 2025).

Target: T1, ABHD6 (Mus musculus, UniProt Q8R2Y0)
T1 construct: full-length mouse ABHD6, pcDNA3.1 myc-His, overexpressed in HEK293T (membrane fraction)
T1 sequence (Q8R2Y0 1-336): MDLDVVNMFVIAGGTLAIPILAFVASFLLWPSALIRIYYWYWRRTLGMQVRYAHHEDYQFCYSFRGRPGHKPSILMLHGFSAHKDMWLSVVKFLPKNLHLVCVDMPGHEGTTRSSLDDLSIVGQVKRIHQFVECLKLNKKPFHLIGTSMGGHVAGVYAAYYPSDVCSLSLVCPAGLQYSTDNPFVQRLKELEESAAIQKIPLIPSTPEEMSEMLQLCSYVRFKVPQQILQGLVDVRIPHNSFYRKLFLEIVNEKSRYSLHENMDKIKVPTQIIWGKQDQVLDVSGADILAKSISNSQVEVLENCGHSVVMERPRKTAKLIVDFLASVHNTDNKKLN
Experiment: competitive gel-based ABPP dose response with FP-rhodamine; lyso-PS lipase LC-MS assay; in vivo ABPP
Type: biochemical

IC50: < 10 nM
Compound: O=C(c1cccc(-c2ccc(-c3cn(C(=O)N4CCCCC4c4ccccc4)nn3)cc2)c1)N1CCCCC1 (stereo not shown) [KT185]
